Patent publication US20140120060A1, “TREATMENT OF RHEUMATOID ARTHRITIS AND ASTHMA USING PI3 KINASE INHIBITORS” (INFINITY PHARMACEUTICALS, INC., priority 2012, published 2014)

Test system: B cell
Test: B cell proliferation
Assay type: cell-based

| SMILES | EC50 [nM] |
| --- | --- |
| Cc1cccc2cc(Cn3nc(-c4cn[nH]c4)c4c(N)ncnc43)n(-c3ccccc3C(C)C)c(=O)c12 [Compound 185] | < 100 |
| Cc1ccccc1-n1c(Cn2nc(-c3cn[nH]c3)c3c(N)ncnc32)cc2ccccc2c1=O [Compound 187] | < 100 |
| Cc1cccc2cc(Cn3nc(-c4cn[nH]c4)c4c(N)ncnc43)n(-c3ccccc3Cl)c(=O)c12 [Compound 188] | < 100 |
| CCc1ccccc1-n1c(Cn2nc(-c3cn[nH]c3)c3c(N)ncnc32)cc2cccc(C)c2c1=O [Compound 190] | < 100 |
| Cc1ccccc1-n1c(C(C)Nc2ncnc3[nH]cnc23)cc2cccc(C)c2c1=O (centres unmarked) [Compound 191] | < 100 |
| Cc1cccc2cc([C@@H](C)Nc3ncnc4[nH]cnc34)n(-c3ccccc3)c(=O)c12 [Compound 195] | < 1000 |
| Cc1cccc2cc([C@H](C)Nc3ncnc4[nH]cnc34)n(-c3ccccc3)c(=O)c12 [Compound 196] | < 100 |
| Cc1cccc2cc([C@@H](C)Nc3ncnc4[nH]cnc34)n(C3CCC3)c(=O)c12 [Compound 197] | < 10000 |
| Cc1cccc2cc([C@H](C)Nc3ncnc4[nH]cnc34)n(C3CCC3)c(=O)c12 [Compound 198] | < 100 |
| Cc1cccc2cc([C@@H](C)Nc3ncnc4[nH]cnc34)n(C3CC3)c(=O)c12 [Compound 199] | > 10000 |
| Cc1cccc2cc([C@H](C)Nc3ncnc4[nH]cnc34)n(C3CC3)c(=O)c12 [Compound 200] | < 100 |
| Cc1cccc2cc(Cn3nc(-c4ccc5oc(N)nc5c4)c4c(N)ncnc43)n(C3CC3)c(=O)c12 [Compound 201] | < 100 |
| CCC(Nc1ncnc2[nH]cnc12)c1cc2cccc(C)c2c(=O)n1-c1ccccc1C (centres unmarked) [Compound 202] | < 100 |
| Cc1cccc2cc(C(C)Nc3ncnc4[nH]cnc34)n(C3CC3)c(=O)c12 (centres unmarked) [Compound 204] | < 100 |
| Cc1cccc2cc(Cn3nc(-c4ccc5oc(N)nc5c4)c4c(N)ncnc43)n(-c3ccccc3)c(=O)c12 [Compound 205] | < 100 |
| Cc1cccc2cc(Cn3nc(-c4cn[nH]c4)c4c(N)ncnc43)n(-c3ccccc3)c(=O)c12 [Compound 206] | < 100 |
| Cc1ccccc1-n1c(Cn2nc(-c3nn[nH]n3)c3c(N)ncnc32)cc2cccc(C)c2c1=O [Compound 207] | < 10000 |
| Cc1cccc2cc(Cn3nc(-c4ccc5oc(N)nc5c4)c4c(N)ncnc43)n(C3CCC3)c(=O)c12 [Compound 208] | < 100 |
| Cc1cccc2cc(C(C)Nc3ncnc4[nH]cnc34)n(C(C)C)c(=O)c12 (centres unmarked) [Compound 209] | < 100 |
| Cc1cccc2cc(C(C)Nc3ncnc4[nH]cnc34)n(-c3ccccc3)c(=O)c12 (centres unmarked) [Compound 210] | < 100 |
| CCC(Nc1ncnc2[nH]cnc12)c1cc2cccc(C)c2c(=O)n1-c1ccccc1 (centres unmarked) [Compound 211] | < 100 |
| CCC(Nc1ncnc2[nH]cnc12)c1cc2cccc(C)c2c(=O)n1C1CCC1 (centres unmarked) [Compound 212] | < 1000 |
| Cc1cccc2cc(C(C)Nc3ncnc4[nH]cnc34)n(-c3ccc(F)cc3)c(=O)c12 (centres unmarked) [Compound 213] | < 100 |
| Cc1cccc2cc(Cn3nc(-c4cn[nH]c4)c4c(N)ncnc43)n(-c3ccccc3C(F)(F)F)c(=O)c12 [Compound 214] | < 100 |
| Cc1cccc2cc(C(C)Nc3ncnc4[nH]cnc34)n(C3CCC3)c(=O)c12 (centres unmarked) [Compound 215] | < 100 |

| SMILES | EC50 [nM] |
| --- | --- |
| Cc1cccc2cc(C(C)Nc3ncnc4[nH]cnc34)n(-c3c(F)cccc3F)c(=O)c12 (centres unmarked) [Compound 216] | < 100 |
| CCC(Nc1ncnc2[nH]cnc12)c1cc2cccc(C)c2c(=O)n1C(C)C (centres unmarked) [Compound 219] | < 100 |
| CC(Nc1ncnc2[nH]cnc12)c1cc2ccccc2c(=O)n1-c1ccccc1 (centres unmarked) [Compound 220] | < 100 |
| CCC(Nc1ncnc2[nH]cnc12)c1cc2ccccc2c(=O)n1-c1ccccc1 (centres unmarked) [Compound 221] | < 100 |
| Cc1cccc2cc(C(C)Nc3ncnc4[nH]cnc34)n(-c3cc(F)cc(F)c3)c(=O)c12 (centres unmarked) [Compound 222] | < 100 |
| CCC(Nc1ncnc2[nH]cnc12)c1cc2cccc(C)c2c(=O)n1-c1ccc(F)cc1 (centres unmarked) [Compound 223] | < 100 |
| CCC(Nc1ncnc2[nH]cnc12)c1cc2cccc(C)c2c(=O)n1-c1cc(F)cc(F)c1 (centres unmarked) [Compound 224] | < 100 |
| Cc1cccc2cc(C(C)Nc3ncnc4[nH]cnc34)n(C3CCN(C)CC3)c(=O)c12 (centres unmarked) [Compound 227] | < 100 |
| CCC(Nc1ncnc2[nH]cnc12)c1cc2cccc(C)c2c(=O)n1C1CCN(C)CC1 (centres unmarked) [Compound 228] | < 100 |
| Cc1cccc2cc(C(C)Nc3ncnc4[nH]cnc34)n(-c3cccc(F)c3)c(=O)c12 (centres unmarked) [Compound 229] | < 100 |
| Cc1cccc2cc([C@H](C)Nc3ncnc4[nH]cnc34)n(C(C)C)c(=O)c12 [Compound 230] | < 100 |
| Cc1cccc2cc(C(C)Nc3ncnc4[nH]cnc34)n(C3CCCC3)c(=O)c12 (centres unmarked) [Compound 231] | < 100 |
| Cc1cccc2cc(C(C)Nc3ncnc4[nH]cnc34)n(CCN3CCOCC3)c(=O)c12 (centres unmarked) [Compound 232] | < 100 |
| Cc1cccc2cc(C(C)Nc3ncnc4[nH]cnc34)n(CCN3CCCC3)c(=O)c12 (centres unmarked) [Compound 233] | < 100 |
| Cc1cccc2cc(C(C)Nc3ncnc4[nH]cnc34)n(C3CCOCC3)c(=O)c12 (centres unmarked) [Compound 234] | < 100 |
| Cc1cccc2cc(Cn3nc(-c4ccc5nc(N)oc5c4)c4c(N)ncnc43)n(-c3ccccc3)c(=O)c12 [Compound 235] | < 10000 |
| CC(Nc1ncnc2[nH]cnc12)c1cc2cccc(Cl)c2c(=O)n1-c1ccccc1 (centres unmarked) [Compound 237] | < 100 |
| Cc1ccccc1-n1c(Cn2nc(-c3ccc4nc(N)oc4c3)c3c(N)ncnc32)cc2cccc(C)c2c1=O [Compound 243] | < 1000 |
| Cc1cccc2cc([C@H](C)Nc3nc(Cl)nc4[nH]cnc34)n(-c3ccccc3)c(=O)c12 [Compound 244] | < 100 |
| Cc1cccc2cc([C@H](C)Nc3nc(F)nc4[nH]cnc34)n(-c3ccccc3)c(=O)c12 [Compound 245] | < 100 |
| Cc1cccc2cc([C@H](C)Nc3ncnc4[nH]ccc34)n(-c3ccccc3)c(=O)c12 [Compound 247] | < 100 |
| Cc1cccc2cc([C@H](C)Nc3nc(Cl)ncc3Cl)n(-c3ccccc3)c(=O)c12 [Compound 248] | < 100 |
| Cc1cccc2cc([C@H](C)Nc3nc(N)ncc3Cl)n(-c3ccccc3)c(=O)c12 [Compound 249] | < 100 |
| CC(=O)Nc1nc2cc(-c3nn(Cc4cc5cccc(C)c5c(=O)n4-c4ccccc4C)c4ncnc(N)c34)ccc2o1 [Compound 251] | < 100 |
| Cc1cccc2cc(Cn3nc(-c4ccc5nc(N)sc5c4)c4c(N)ncnc43)n(-c3ccccc3)c(=O)c12 [Compound 252] | < 100 |

| SMILES | EC50 [nM] |
| --- | --- |
| CC(=O)Nc1nc2cc(-c3nn(Cc4cc5cccc(C)c5c(=O)n4-c4ccccc4)c4ncnc(N)c34)ccc2o1 [Compound 253] | < 100 |
| Cc1cccc2cc([C@H](C)Nc3ncnc4[nH]cc(F)c34)n(-c3ccccc3)c(=O)c12 [Compound 254] | < 100 |
| Cc1cccc2cc([C@H](C)Nc3ncnc4[nH]nc(C#N)c34)n(-c3ccccc3)c(=O)c12 [Compound 255] | < 100 |
| Cc1cccc2cc([C@H](C)Nc3ncnc4[nH]nc(C(N)=O)c34)n(-c3ccccc3)c(=O)c12 [Compound 256] | < 100 |
| Cc1cccc2cc([C@H](C)Nc3ncnc4[nH]cc(Br)c34)n(-c3ccccc3)c(=O)c12 [Compound 257] | < 100 |
| C[C@H](Nc1ncnc2[nH]cnc12)c1cc2cccc(Cl)c2c(=O)n1C1CC1 [Compound 270] | < 100 |
| Cc1ccccc1-n1c(Cn2nc(-c3ccc4sc(N)nc4c3)c3c(N)ncnc32)cc2cccc(C)c2c1=O [Compound 276] | < 100 |
| Cc1cccc2cc(Cn3nc(-c4ccc5sc(N)nc5c4)c4c(N)ncnc43)n(-c3ccccc3)c(=O)c12 [Compound 277] | < 100 |
| Cc1cccc2cc([C@H](C)Nc3ncnc4[nH]cc(F)c34)n(C3CC3)c(=O)c12 [Compound 278] | < 100 |
| Cc1cccc2cc([C@H](C)Nc3ncnc4[nH]cc(C#N)c34)n(C3CC3)c(=O)c12 [Compound 289] | < 100 |
| Cc1cccc2cc([C@H](C)Nc3ncnc4[nH]cnc34)n(-c3cccc(F)c3)c(=O)c12 [Compound 290] | < 100 |
| CCc1nn(Cc2cc3cccc(C)c3c(=O)n2-c2ccccc2C)c2ncnc(N)c12 [Compound 294] | < 1000 |
| Cc1ccccc1-n1c(Cn2nc(-c3ccc4nc(N)[nH]c4c3)c3c(N)ncnc32)cc2cccc(C)c2c1=O [Compound 295] | < 100 |
| CC(=O)Nc1nc2ccc(-c3nn(Cc4cc5cccc(C)c5c(=O)n4-c4ccccc4C)c4ncnc(N)c34)cc2[nH]1 [Compound 296] | < 100 |
| Cc1ccccc1-n1c(Cn2nc(C(N)=O)c3c(N)ncnc32)cc2cccc(C)c2c1=O [Compound 298] | < 100 |
| Cc1ccccc1-n1c(Cn2nc(C(=O)NO)c3c(N)ncnc32)cc2cccc(C)c2c1=O [Compound 300] | < 100 |
| C=Cc1nn(Cc2cc3cccc(C)c3c(=O)n2-c2ccccc2)c2ncnc(N)c12 [Compound 301] | < 100 |
| Cc1cccc2cc(Cn3nc(-c4ccc5nc(N)[nH]c5c4)c4c(N)ncnc43)n(-c3ccccc3)c(=O)c12 [Compound 302] | < 100 |
| CCc1nn(Cc2cc3cccc(C)c3c(=O)n2-c2ccccc2)c2ncnc(N)c12 [Compound 303] | < 100 |
| Cc1ccccc1-n1c(Cn2nc(C(F)F)c3c(N)ncnc32)cc2cccc(C)c2c1=O [Compound 306] | < 100 |
| Cc1cccc2cc(Cn3nc(C(F)F)c4c(N)ncnc43)n(-c3ccccc3)c(=O)c12 [Compound 308] | < 100 |
| Cc1ccccc1-n1c(Cn2nc(CF)c3c(N)ncnc32)cc2cccc(C)c2c1=O [Compound 310] | < 100 |
| Cc1cccc2cc(Cn3nc(CF)c4c(N)ncnc43)n(-c3ccccc3)c(=O)c12 [Compound 311] | < 100 |
| Cc1ccccc1-n1c(Cn2nc(CC#N)c3c(N)ncnc32)cc2cccc(C)c2c1=O [Compound 312] | < 1000 |
